PubChem BioAssay (NCI)
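Five compound concentrations were applied to cells in 96-well plates for 48 hours; endpoints were derived by simple linear interpolation of the resulting dose-response curve. GI50 is the concentration that inhibits growth by half. The concentration for full growth arrest is given as TGI.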

Assays:
Assay in all cases: DTP human tumour cell line panel, 48 h
A549 NSCLC = tested on: A549 NSCLC
HL-60(TB) leukemia = tested on: HL-60(TB) leukemia
HT29 colon = tested on: HT29 colon
KM12 colon = tested on: KM12 colon
LOX IMVI melanoma = tested on: LOX IMVI melanoma
MOLT-4 leukemia = tested on: MOLT-4 leukemia
SNB-19 CNS = tested on: SNB-19 CNS
SNB-75 CNS = tested on: SNB-75 CNS
UACC-257 melanoma = tested on: UACC-257 melanoma
UO-31 renal = tested on: UO-31 renal

## CCCCCCCCCCCCCC[n+]1ccc(C)cc1
A549 NSCLC
  GI50: 1.53 µM
  TGI: 2.94 µM
HL-60(TB) leukemia
  GI50: 0.338 µM
  TGI: 1.19 µM
HT29 colon
  GI50: 0.356 µM
  TGI: 1.82 µM
KM12 colon
  GI50: 0.281 µM
  TGI: 0.802 µM
LOX IMVI melanoma
  GI50: 0.35 µM
  TGI: 1.36 µM
MOLT-4 leukemia
  GI50: 0.689 µM
  TGI: 2.65 µM
SNB-19 CNS
  GI50: 1.46 µM
  TGI: 4.02 µM
SNB-75 CNS
  GI50: 0.806 µM
  TGI: 2.37 µM
UACC-257 melanoma
  GI50: 0.763 µM
  TGI: 2.48 µM
UO-31 renal
  GI50: 1.38 µM
  TGI: 3.79 µM

## O=C(O)/C=C/c1c[nH]c(=O)[nH]c1=O
A549 NSCLC
  TGI: > 500 µM
HL-60(TB) leukemia
  TGI: > 500 µM
HT29 colon
  GI50: > 500 µM
  TGI: > 500 µM
KM12 colon
  TGI: > 500 µM
LOX IMVI melanoma
  TGI: > 500 µM
MOLT-4 leukemia
  TGI: > 281 µM
SNB-19 CNS
  TGI: > 500 µM
SNB-75 CNS
  TGI: > 500 µM
UACC-257 melanoma
  TGI: > 500 µM
UO-31 renal
  TGI: > 500 µM

## COc1ccc(-c2c(-c3ccccc3)c(C)nc3nc(SC)nc(SC)c23)cc1OC
A549 NSCLC
  TGI: > 100 µM
HL-60(TB) leukemia
  TGI: 8.49 µM
HT29 colon
  TGI: > 100 µM
KM12 colon
  TGI: > 100 µM
LOX IMVI melanoma
  TGI: 33.2 µM
MOLT-4 leukemia
  TGI: 71.3 µM
SNB-19 CNS
  TGI: > 100 µM
SNB-75 CNS
  TGI: > 100 µM
UACC-257 melanoma
  TGI: > 100 µM
UO-31 renal
  TGI: > 100 µM

## CC12CCC(CC1)C(C)(C)O2
A549 NSCLC
  GI50: 6.75 µM
  TGI: 79.7 µM
HL-60(TB) leukemia
  TGI: > 93.9 µM
HT29 colon
  TGI: 128 µM
KM12 colon
  TGI: 118 µM
LOX IMVI melanoma
  TGI: 48.7 µM
MOLT-4 leukemia
  TGI: 77.2 µM
SNB-19 CNS
  GI50: 20.8 µM
  TGI: 103 µM
SNB-75 CNS
  TGI: 115 µM
UACC-257 melanoma
  TGI: 73.7 µM
UO-31 renal
  TGI: 78.3 µM

## CC(C)c1ccccc1SCc1cc(=O)cc(CSc2ccccc2C(C)C)o1
A549 NSCLC
  TGI: > 100 µM
HL-60(TB) leukemia
  TGI: 82 µM
HT29 colon
  TGI: 41.2 µM
KM12 colon
  TGI: 32.9 µM
LOX IMVI melanoma
  TGI: 84.4 µM
MOLT-4 leukemia
  TGI: 93.3 µM
SNB-19 CNS
  TGI: > 100 µM
SNB-75 CNS
  TGI: 36.5 µM
UACC-257 melanoma
  TGI: 51 µM
UO-31 renal
  TGI: > 100 µM

## Cc1cccc(N2C(=O)C3c4[nH]c5ccc(C)cc5c4C4CCC(C(C)(C)C)CC4C3C2=O)c1 (centres undefined)
A549 NSCLC
  TGI: 60.7 µM
HL-60(TB) leukemia
  TGI: 40.3 µM
HT29 colon
  TGI: > 100 µM
KM12 colon
  TGI: 38 µM
LOX IMVI melanoma
  TGI: 43.7 µM
MOLT-4 leukemia
  TGI: 29.7 µM
SNB-19 CNS
  TGI: > 100 µM
UACC-257 melanoma
  TGI: > 100 µM
UO-31 renal
  TGI: > 100 µM

## CSc1nc(N)c2c(-c3ccccc3)c3c(nc2n1)CCCC3
A549 NSCLC
  TGI: > 100 µM
HL-60(TB) leukemia
  TGI: > 100 µM
HT29 colon
  TGI: > 100 µM
KM12 colon
  TGI: > 100 µM
LOX IMVI melanoma
  TGI: > 100 µM
MOLT-4 leukemia
  TGI: > 100 µM
SNB-19 CNS
  TGI: > 100 µM
SNB-75 CNS
  TGI: > 100 µM
UACC-257 melanoma
  TGI: > 100 µM
UO-31 renal
  TGI: > 100 µM

## C=C1C(=O)OC2CC(C)C3C4OC4C(O)C3(C)C(O)C12 (centres undefined)
A549 NSCLC
  TGI: 121 µM
HL-60(TB) leukemia
  TGI: > 51.6 µM
HT29 colon
  TGI: 83.8 µM
KM12 colon
  TGI: 71.1 µM
LOX IMVI melanoma
  TGI: 65.3 µM
MOLT-4 leukemia
  TGI: 41.8 µM
SNB-19 CNS
  TGI: 102 µM
SNB-75 CNS
  TGI: 92.1 µM
UACC-257 melanoma
  TGI: 104 µM
UO-31 renal
  TGI: 149 µM

## C=C=CC(NC(=O)c1ccccc1)(C(=O)O)C(F)(F)F (centres undefined)
A549 NSCLC
  TGI: > 100 µM
HL-60(TB) leukemia
  TGI: > 100 µM
HT29 colon
  TGI: > 100 µM
KM12 colon
  TGI: > 100 µM
LOX IMVI melanoma
  TGI: > 100 µM
MOLT-4 leukemia
  TGI: > 100 µM
SNB-19 CNS
  TGI: > 100 µM
SNB-75 CNS
  TGI: > 100 µM
UACC-257 melanoma
  TGI: > 100 µM

## C/C(N=NS(=O)(=O)c1ccc([N+](=O)[O-])cc1)=C1\C=CC=CN1O
A549 NSCLC
  TGI: > 100 µM
HL-60(TB) leukemia
  TGI: > 100 µM
HT29 colon
  TGI: > 100 µM
KM12 colon
  TGI: > 100 µM
MOLT-4 leukemia
  TGI: > 100 µM
SNB-19 CNS
  TGI: > 100 µM
SNB-75 CNS
  TGI: > 100 µM
UACC-257 melanoma
  TGI: > 100 µM
UO-31 renal
  TGI: > 100 µM

## CCCCOP(C)(=O)C(NC(=O)OCC)(C(F)(F)F)C(F)(F)F (centres undefined)
A549 NSCLC
  TGI: > 100 µM
HL-60(TB) leukemia
  TGI: > 100 µM
HT29 colon
  TGI: > 100 µM
KM12 colon
  TGI: > 100 µM
LOX IMVI melanoma
  TGI: > 100 µM
MOLT-4 leukemia
  TGI: > 100 µM
SNB-19 CNS
  TGI: > 100 µM
SNB-75 CNS
  TGI: > 100 µM
UACC-257 melanoma
  TGI: > 100 µM
UO-31 renal
  TGI: > 100 µM

## O=C1/C(=C/c2ccc(O)cc2)COc2ccc(O)c(O)c21
A549 NSCLC
  GI50: 3.6 µM
  TGI: > 100 µM
HL-60(TB) leukemia
  GI50: 1.93 µM
  TGI: 7.41 µM
HT29 colon
  GI50: 3.52 µM
  TGI: 16.9 µM
KM12 colon
  GI50: 1.99 µM
  TGI: 6.04 µM
LOX IMVI melanoma
  GI50: 1.47 µM
  TGI: 3.22 µM
MOLT-4 leukemia
  GI50: 1.99 µM
  TGI: > 100 µM
SNB-19 CNS
  GI50: 3.74 µM
  TGI: > 100 µM
SNB-75 CNS
  GI50: 1.78 µM
  TGI: > 100 µM
UACC-257 melanoma
  GI50: 4.5 µM
  TGI: > 100 µM
UO-31 renal
  GI50: 1.09 µM
  TGI: 2.74 µM

## O=C(SCc1cccc2ccccc12)c1ccc(Cl)cc1
A549 NSCLC
  TGI: > 100 µM
HL-60(TB) leukemia
  TGI: > 100 µM
HT29 colon
  TGI: > 100 µM
KM12 colon
  TGI: > 100 µM
LOX IMVI melanoma
  TGI: > 100 µM
SNB-19 CNS
  TGI: > 100 µM
SNB-75 CNS
  TGI: > 100 µM
UACC-257 melanoma
  TGI: > 100 µM
UO-31 renal
  TGI: > 100 µM
